In publication PMC4412257, “2′,6′-Dimethylphenylalanine: A Useful Aromatic Amino Acid Surrogate for Tyr or Phe Residue in Opioid Peptides” (International Journal of Medicinal Chemistry, 2012):
Read-outs that look alike come from different tables or passages of the source.

Key:
[1] = test system: GPI (μ): guinea pig ileum, predominantly μ-receptors; details: cited from earlier work; for Ke of CTAP against the peptide, GPI: antagonist CTAP (μ), GPI assay; for MVD/GPI: ratio of IC50 values
δ-opioid receptor [2] = test: δ-opioid receptor binding, brain homogenate, versus [3H]DT; design: species or system rat; details: ratio of Ki values
Experimental: The receptor-binding affinities of synthetic analogs were determined using rat brain, as previously reported [45].

δ-opioid receptor [3] = details: cited from earlier work; for Ki: versus [3H]DT, read-out: Receptor binding affinity, Ki ± S.E., δ; for μ/δ: ratio of Ki values
μ-opioid receptor [4] = details: cited from earlier work; for Ki: versus [3H]DAMGO, read-out: Receptor binding affinity, Ki ± S.E., μ
[5] = target: MVD (δ): mouse vas deferens, δ-receptors; details: cited from earlier work; for Ke of CTAP against the peptide, MVD: antagonist CTAP (μ); for Ke of CTAP against the peptide, MVD / Ke of N,N(Me)2Dmt-Tic-OH against the peptide, MVD: MVD assay; for Ke of N,N(Me)2Dmt-Tic-OH against the peptide, MVD: antagonist N,N(Me)2Dmt-Tic-OH (δ); for GPI/MVD: ratio of IC50 values
[6] = test system: MVD (δ): mouse vas deferens, δ-receptors; test: isolated mouse vas deferens (MVD) assay; format: cell-based; details: ratio of IC50 values
Experimental: (§1) The receptor-binding affinities of synthetic analogs were determined using rat brain, as previously reported. […] The GPI tissue contains predominantly μ-receptors, while MVD tissue contains δ-receptors. […] In contrast, 11 was devoid of activity in both assays, as expected from the binding data. […] This analog turned out to be a potent μ-antagonist and a weak δ-antagonist. […] The results of 13 are in line with observations that Dmt-D-Phe-NH2 and its C-terminally extended analog are μ-receptor antagonists.

[7] = test system: GPI (μ): guinea pig ileum, predominantly μ-receptors; test: isolated guinea pig ileum (GPI) assay; format: cell-based; details: ratio of IC50 values
Experimental: as §1

μ-opioid receptor [8] = test: μ-opioid receptor binding, brain homogenate, versus [3H]DAMGO; design: species or system rat; details: ratio of Ki values
Experimental: as §1
Two methyl groups on Dmp^4 may interfere with the receptor interaction due to a reduction in conformational flexibility and/or enhanced lipophilicity. To further examine the usefulness of Dmp-containing DYN peptides as κ-opioid receptor ligands, the in vitro bioactivity of DYN peptides was determined using the GPI assay (Table 5).

mice = test system: mice; design: method as in PMID 12657261; details: formalin test in mice, subcutaneous injection, cited from earlier work

Substance: [Dmp^1]ENK [compound 32]
- IC50 ([1]; Table 6): 710 ± 69 nM
- μ/δ (δ-opioid receptor [2]; Table 6): 3.19
- Ki (δ-opioid receptor [3]; Table 6): 1.86 ± 0.61 nM
- Ki (μ-opioid receptor [4]; Table 6): 5.94 ± 1.45 nM
- IC50 ([5]; Table 6): 66.6 ± 12.7 nM
- GPI/MVD ([6]; Table 6): 10.66

Substance: [Dmp^1]YRFB [compound 24]
- MVD/GPI ([7]; Table 6): 19
- IC50 ([1]; Table 6): 9.88 ± 1.04 nM
- Ke of CTAP against the peptide, GPI [1]: 25.1 nM
- Ki (δ-opioid receptor [3]; Table 6): 2570 ± 947 nM
- δ/μ (μ-opioid receptor [8]; Table 6): 41284
- Ki (μ-opioid receptor [4]; Table 6): 0.0623 ± 0.014 nM
- ED50, First phase (mice): 1946 nmol/kg
- ED50, Second phase (mice): 1529 nmol/kg
- IC50 ([5]; Table 6): 188 ± 52 nM
- Ke of CTAP against the peptide, MVD [5]: 13.4 nM
- Ke of N,N(Me)2Dmt-Tic-OH against the peptide, MVD [5]: >1000 nM

Substance: [Dmp^3]DM [compound 18]
- MVD/GPI ([7]; Table 1): 3.8
- IC50 ([1]; Table 1): 1.21 ± 0.23 nM
- Ki (δ-opioid receptor [3]; Table 1, rat brain): 45.7 ± 11.8 nM
- δ/μ (μ-opioid receptor [8]; Table 1): 84630
- IC50 ([5]; Table 1): 4.62 ± 0.82 nM

Substance: [Dmp^3]DT [compound 20]
- IC50 ([1]; Table 1): 6700 ± 992 nM
- Ki (δ-opioid receptor [3]; Table 1, rat brain): 0.00105 ± 0.00043 nM
- Ki (μ-opioid receptor [4]; Table 1, rat brain): 1100 ± 111 nM
- IC50 ([5]; Table 1): 0.022 ± 0.003 nM

Substance: [Dmp^3]EM2 [compound 14]
- MVD/GPI ([7]; Table 1): 3.68
- IC50 ([1]; Table 1): 0.378 ± 0.104 nM
- Ki (δ-opioid receptor [3]; Table 1, rat brain): 1060 ± 336 nM
- δ/μ (μ-opioid receptor [8]; Table 1): 34967
- Ki (μ-opioid receptor [4]; Table 1, rat brain): 0.0304 ± 0.0208 nM

Substance: [Dmp^3]YRFB [compound 22]
- MVD/GPI ([7]; Table 1): 16.7
- IC50 ([1]; Table 1): 1.67 ± 0.24 nM
- Ke of CTAP against the peptide, GPI [1]: 22.7 nM
- Ki (δ-opioid receptor [3]; Table 1, rat brain): 544 ± 143 nM
- δ/μ (μ-opioid receptor [8]; Table 1): 15543
- Ki (μ-opioid receptor [4]; Table 1, rat brain): 0.035 ± 0.0167 nM
- ED50, First phase (mice): 98.6 nmol/kg
- ED50, Second phase (mice): 113 nmol/kg
- IC50 ([5]; Table 1): 27.9 ± 5 nM
- Ke of CTAP against the peptide, MVD [5]: 11.4 nM
- Ke of N,N(Me)2Dmt-Tic-OH against the peptide, MVD [5]: >1000 nM

Substance: [Dmp^4]EM2 [compound 16]
- MVD/GPI ([7]; Table 1): 1.63
- IC50 ([1]; Table 1): 196 ± 40 nM
- Ki (δ-opioid receptor [3]; Table 1, rat brain): 7620 ± 2570 nM
- δ/μ (μ-opioid receptor [8]; Table 1): 578
- Ki (μ-opioid receptor [4]; Table 1, rat brain): 13.2 ± 1.9 nM
- IC50 ([5]; Table 1): 320 ± 55 nM

Substance: [Dmp^4]ENK [compound 10]
- IC50 ([1]; Table 1): 808 ± 101 nM
- μ/δ (δ-opioid receptor [2]; Table 1): 0.07
- Ki (δ-opioid receptor [3]; Table 1, rat brain): 17.7 ± 4.2 nM
- Ki (μ-opioid receptor [4]; Table 1, rat brain): 1.25 ± 0.29 nM
- IC50 ([5]; Table 1): 624 ± 103 nM
- GPI/MVD ([6]; Table 1): 1.29

Substance: [Dmt^1, D-Dmp^4]ENK [compound 13]
- IC50 ([1]; Table 1): > 10000 nM
- pA2 (μ antagonism) ([1]; against EM2 as a μ agonist in the GPI assay): 6.90
- μ/δ (δ-opioid receptor [2]; Table 1): 0.14
- Ki (δ-opioid receptor [3]; Table 1, rat brain): 40.9 ± 11.5 nM
- Ki (μ-opioid receptor [4]; Table 1, rat brain): 5.61 ± 0.59 nM
- IC50 ([5]; Table 1): > 10000 nM
- pA2 (δ antagonism) ([5]; against DT as a δ agonist in the MVD assay): 5.57

Substance: [Dmt^1, Dmp^4]ENK [compound 12]
- IC50 ([1]; Table 1): 2 ± 0.51 nM
- μ/δ (δ-opioid receptor [2]; Table 1): 0.19
- Ki (μ-opioid receptor [4]; Table 1, rat brain): 0.03 ± 0.011 nM
- IC50 ([5]; Table 1): 1.45 ± 0.26 nM
- GPI/MVD ([6]; Table 1): 1.38

Substance: [Dmt^1]DT [compound 36]
- IC50 ([1]; Table 6): 88.4 ± 22.7 nM
- μ/δ (δ-opioid receptor [2]; Table 6): 21.8
- Ki (δ-opioid receptor [3]; Table 6): 0.012 ± 0.002 nM
- Ki (μ-opioid receptor [4]; Table 6): 0.261 ± 0.06 nM
- IC50 ([5]; Table 6): 0.052 ± 0.007 nM
- GPI/MVD ([6]; Table 6): 1700

Substance: [Dmt^1]EM2 [reference compound]
- IC50 ([1]; Table 6, footnote d): 0.07 ± 0.02 nM
- MVD/GPI ([1]; Table 6, footnote d): 26.7
- Ki (μ-opioid receptor [4]; Table 6, footnote d): 0.15 ± 0.04 nM
- IC50 ([5]; Table 6, footnote d): 1.87 ± 0.61 nM

Substance: [Dmt^1]ENK [reference compound]
- IC50 ([1]; Table 1, footnote c): 0.55 ± 0.17 nM
- IC50 ([1]; Table 6, footnote c): 0.55 ± 0.17 nM
- μ/δ (δ-opioid receptor [3]; Table 1, footnote c): 0.22
- Ki (δ-opioid receptor [3]; Table 1, footnote c): 0.031 ± 0.011 nM
- μ/δ (δ-opioid receptor [3]; Table 6, footnote c): 0.22
- Ki (δ-opioid receptor [3]; Table 6, footnote c): 0.031 ± 0.011 nM
- Ki (μ-opioid receptor [4]; Table 1, footnote c): 0.0068 ± 0.003 nM
- Ki (μ-opioid receptor [4]; Table 6, footnote c): 0.0068 ± 0.003 nM
- IC50 ([5]; Table 1, footnote c): 0.17 ± 0.02 nM
- GPI/MVD ([5]; Table 1, footnote c): 3.24
- IC50 ([5]; Table 6, footnote c): 0.17 ± 0.02 nM
- GPI/MVD ([5]; Table 6, footnote c): 3.24

Substance: [Dmt^1]YRFB [reference compound]
- IC50 ([1]; Table 6, footnote c): 0.034 ± 0.065 nM
- MVD/GPI ([1]; Table 6, footnote c): 11.7
- Ke of CTAP against the peptide, GPI [1]: 85.5 nM
- Ki (δ-opioid receptor [3]; Table 6, footnote c): 1.13 ± 0.13 nM
- δ/μ (μ-opioid receptor [4]; Table 6, footnote c, ratio of Ki values): 551
- Ki (μ-opioid receptor [4]; Table 6, footnote c): 0.00205 ± 0.00069 nM
- IC50 ([5]; Table 6, footnote c): 0.398 ± 0.085 nM
- Ke of CTAP against the peptide, MVD [5]: 7.89 nM
- Ke of N,N(Me)2Dmt-Tic-OH against the peptide, MVD [5]: 192 nM

Substance: [Phe^1]DT [compound 37]
- IC50 ([1]; Table 6): > 10000 nM
- Ki (δ-opioid receptor [3]; Table 6): 2.68 ± 1.22 nM
- Ki (μ-opioid receptor [4]; Table 6): > 2180 nM
- IC50 ([5]; Table 6): 10.4 ± 1.5 nM

Substance: [Phe^1]EM2 [compound 40]
- MVD/GPI ([7]; Table 6): 4.85
- IC50 ([1]; Table 6): 1070 ± 309 nM
- Ki (δ-opioid receptor [3]; Table 6): 18900 nM
- δ/μ (μ-opioid receptor [8]; Table 6): 348
- Ki (μ-opioid receptor [4]; Table 6): 54.1 ± 23.4 nM
- IC50 ([5]; Table 6): 5200 nM

Substance: [Phe^1]ENK [compound 33]
- IC50 ([1]; Table 6): > 10000 nM
- μ/δ (δ-opioid receptor [2]; Table 6): 2.29
- Ki (δ-opioid receptor [3]; Table 6): 73.7 ± 19.5 nM
- Ki (μ-opioid receptor [4]; Table 6): 169 ± 12 nM
- IC50 ([5]; Table 6): > 10000 nM

Substance: [Phe^1]YRFB [compound 42]
- MVD/GPI ([7]; Table 6): 11.2
- IC50 ([1]; Table 6): 633 ± 89 nM
- Ki (δ-opioid receptor [3]; Table 6): > 2820 nM
- δ/μ (μ-opioid receptor [8]; Table 6): >393
- Ki (μ-opioid receptor [4]; Table 6): 7.17 ± 1.03 nM
- IC50 ([5]; Table 6): 7140 ± 950 nM
